# Reference: patent EP2326328B1, “USE OF DIHYDRALAZINE FOR THE TREATMENT OF DISEASES RELATED TO ELEVATED SEMICARBAZIDE SENSITIVE AMINE-OXIDASE (SSAO) ACTIVITY” (Semmelweis Egyetem, priority 2008, dated 2010)
# Assay: blood pressure and pulse of treated type 2 diabetic patients
# Format: in vivo, human
# Conditions: type 2 diabetic patients, oral 14.5 mg dihydralazine sulphate twice daily
# Description: After giving their informed consent, patients participating in the study were treated for 56 days taking ½ tablet twice daily of a pharmaceutical composition containing 28.9 mg dihydralazine sulphate (i.e. the ½ tablet contained 14.5 mg dihydralazine sulphate).
# To measure the efficacy and monitor the safety of the treatment, the following examinations were carried out before starting the treatment and at the 1., 7., 14., 28. and 56. day of the treatment: • 1. ocular examinations: visual acuity (ETDRS chart), slit-lamp examination, measurement of intraocular pressure with applanation tonometry, fundus biomicroscopy with pupil dilation, digital fundus photography. The grade of macular edema was determined via measuring retinal thickness with optical coherency tomography (OCT). • 2. internal medicine examinations: anamnesis, physical examinations, blood pressure, pulse, urine examination. • 3. laboratory examinations: blood glucose, HbA1c, liver function, kidney function, microalbuminuria, metabolic panel of the blood , lipids, CRP.
# In the table the following abbreviations were used: • BMI: body mass index - weight (kg) / height (m^2) • RRsyst: blood pressure (systolic) (Hgmm) • RRdiast: blood pressure (diastolic) (Hgmm) • OCT CST (central subfield thickness): the average thickness of the central 1-mm area of the macula • OCT CPT (center point thickness): the thickness of the center point of the retina; normally that is the thinnest point of the macula Table 4.
substance,measurement,value
dihydralazine sulphate,blood pressure,no appreciable lowering of blood pressure was observed
